The target in experiment [1] is T1, rat CYP17 (rat testicular microsomes) (Rattus norvegicus, UniProt P11715).
T1 construct: Rat testis tissue was collected and disrupted with 30 strokes of a glass homogenizer; from tissue; host or cells: rat testis (microsomes)
T1 sequence (P11715 1-507): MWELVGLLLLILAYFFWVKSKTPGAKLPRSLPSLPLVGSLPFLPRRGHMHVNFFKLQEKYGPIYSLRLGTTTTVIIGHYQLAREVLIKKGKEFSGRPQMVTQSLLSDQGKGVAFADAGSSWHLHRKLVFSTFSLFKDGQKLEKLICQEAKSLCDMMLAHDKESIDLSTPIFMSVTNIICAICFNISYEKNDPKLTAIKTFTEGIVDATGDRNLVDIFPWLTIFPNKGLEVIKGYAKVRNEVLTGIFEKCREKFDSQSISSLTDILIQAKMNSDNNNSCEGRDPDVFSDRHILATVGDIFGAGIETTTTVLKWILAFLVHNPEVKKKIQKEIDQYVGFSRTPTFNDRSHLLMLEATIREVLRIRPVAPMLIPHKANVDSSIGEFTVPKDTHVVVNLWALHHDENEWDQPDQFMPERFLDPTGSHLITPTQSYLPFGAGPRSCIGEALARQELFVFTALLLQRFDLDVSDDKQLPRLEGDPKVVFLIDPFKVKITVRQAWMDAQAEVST
Nature of the experiment: CYP17 inhibition assay in rat testicular microsomes. The format is biochemical. The essentials: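 Rat testicular microsomes (150–160 μg) or yeast microsomes expressing human CYP17 (1.7 pmol) react with ³H-17α-hydroxypregnenolone (1 μCi/reaction) and 325 μM NADPH in potassium phosphate buffer, pH 7.4. Compound is pre-incubated with substrate for 15 min, then the reaction runs 60 min at 37 °C. After chloroform extraction and charcoal treatment, aqueous radioactivity is measured by scintillation counting.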

For a further experiment, the target named is T2, human CYP17 (Homo sapiens, UniProt P05093).
T2 construct: purchased Premas Biotech, India; host or cells: yeast (microsomes)
T2 sequence (P05093 1-508): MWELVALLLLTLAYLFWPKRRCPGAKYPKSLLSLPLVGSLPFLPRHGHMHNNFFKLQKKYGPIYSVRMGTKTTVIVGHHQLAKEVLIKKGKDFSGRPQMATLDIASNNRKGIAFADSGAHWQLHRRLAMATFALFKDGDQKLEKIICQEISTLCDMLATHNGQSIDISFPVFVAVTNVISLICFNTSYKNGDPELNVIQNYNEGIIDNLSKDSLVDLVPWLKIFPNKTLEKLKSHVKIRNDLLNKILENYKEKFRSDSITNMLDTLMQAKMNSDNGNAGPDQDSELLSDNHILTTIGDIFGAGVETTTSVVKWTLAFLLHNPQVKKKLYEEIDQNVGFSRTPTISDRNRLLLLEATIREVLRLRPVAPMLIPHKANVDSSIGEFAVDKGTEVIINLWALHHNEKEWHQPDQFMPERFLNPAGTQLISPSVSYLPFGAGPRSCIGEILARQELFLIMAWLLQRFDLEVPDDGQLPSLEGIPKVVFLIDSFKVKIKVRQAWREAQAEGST
The experiment can be described thus: CYP17 inhibition assay in yeast microsomes overexpressing human CYP17. The format is biochemical. Conditions: yeast microsomes expressing human CYP17. How it is done:
CYP17 Inhibition Assay in Rat Testicular Microsomes (Rat CYP17) or Yeast Microsome Overexpressing Human CYP17
1. NADPH (Sigma): A working stock was prepared by adding 25 μL of 6.5 mM NADPH in each tube. The final concentration of NADPH used in the assay was 325 μM.
2. Potassium Phosphate Buffer: One molar (1M) solutions of K2HPO4 and KH2PO4 were prepared. Eight mL of the 1 M KH2PO4 and 1.98 mL of the 1 M K2HPO4 were combined and the pH was adjusted to 7.4.
3. ^3H3-17α-hydroxypregnenolone (American Radiolabeled Chemicals, Inc., stock 1 μCi/μL): A 1:1 dilution of ^3H3-17α-hydroxypregnenolone in ethanol was prepared by combining 100 μL ^3H3-17α-hydroxypregnenolone+100 μL ethanol for one complete 96 well plate. For the reaction, 2 μL of the diluted ^3H3-17α-hydroxypregnenolone was added in each tube, i.e., 1 μCi/reaction. 4. Microsome Isolation Buffer: The microsome isolation buffer was prepared by combining 250 mM Sucrose, 5 mM EDTA, 10 mM Tris HCl, 4 mM DTT, and adjusting to pH 7.4. 5. TEG Buffer: The TEG buffer was prepared by combining 50 mM Tris HCl, 1 mM EDTA, and 20% Glycerol. 6. Rat Testicular Microsomes: Rat testis tissue was collected and disrupted with 30 strokes of a glass homogenizer on ice with 250 μL of microsome isolation buffer, followed by centrifugation at 10,000 g for 10 minutes at 4° C. The supernatant was collected and centrifuged at 100,000 g for 45 minutes at 4° C. The pellet was dissolved in TEG Buffer and the protein was quantified. The homogenized microsome samples were then frozen at −80° C. • 7. Yeast Microsomes which overexpress the human CYP17 enzyme were obtained from Premas Biotech, India.
Potassium phosphate buffer (470 μL) was prepared as described above and was added to each well of a deep well plate. The test compound was diluted using a TECAN liquid handler and 5 μL of diluted compound was transferred to each well (96 deep well/1 mL). A solution (25 μL) of 6.5 mM NADPH was added (final concentration of 325 μM in the assay). ^3H3-17α-hydroxypregnenolone (2 μL of the working stock) was added to each tube. The plates were then pre-incubated for 15 minutes at 37° C. Following the pre-incubation, either 5 μL rat testicular microsomes (150-160 μg) or 5 μL of yeast microsomes expressing human CYP17 (1.7 pmol), was added. Incubation was at 37° C. for 60 minutes in the presence of oxygen. The plates were then placed in ice and chloroform (500 μL) was added, mixed well and incubated at 4° C. for 20 minutes. The plates were then centrifuged at 1000 rpm for 15 minutes at 4° C.
A portion (300 μL) of the aqueous solution was collected and mixed with a 5% aqueous suspension of activated charcoal (300 μL). The plates were then incubated at 4° C. for 30 minutes, after which the plates were centrifuged at 1000 rpm for 15 minutes at 4° C. From this, 125 μL of the aqueous solution was collected and plated into a 96 well plate. Microscint™ 40 [125 μL, Perkin-Elmer; containing a mixture of a polymer based on alkylphenolethoxylate (20-40%), diethanolamine-phosphoric acid ester ammonium salt (10-20%), sodium dioctyl sulphosuccinate (2.5-10%), triethyl phosphate (2.5-10%), 3,6-dimethyl-4-octyne-3,6-diol (≦2.5%), a polymer based on nonylphenolethoxylate (≦2.5%), diisopropyl naphthalene isomers (40-60%), 2,5-diphenyloxazole (≦2.5%), and 9,10-dimethylanthracene] was added and mixed well. After 30 minutes of incubation, the samples were analyzed with a MicroBeta® Trilux microplate liquid scintillation counter and luminometer (Perkin-Elmer).

Our source for the IC50 values is patent US8809372B2, “Pyridine derivatives” (Endo Pharmaceuticals, Inc., priority 2011, dated 2014).

Some results are limits rather than exact numbers.

Usually IC50 stands for the concentration that inhibits the measured activity by half. Lower therefore signals higher potency. As for `COc1ccc(-c2ccc(C(C)(O)c3ccncc3)nc2)cc1` (racemic) [Example 1, 1-(5-(4-Methoxyphenyl)pyridin-2-yl)-1-(pyridin-4-yl)ethanol], the IC50 in experiment [1] is below 50 nM; on human CYP17 it was 201 to 10000 nM. The matching figures for `CC(O)(c1ccncc1)c1cnc(-c2ccc(F)cc2)s1` (racemic) [Example 7, 1-(2-(4-Fluorophenyl)thiazol-5-yl)-1-(pyridin-4-yl)ethanol]: below 50 nM and 50 to 200 nM. Compound `COc1ccc(-c2ccc(C(C)(O)c3ccncc3)nc2)cc1` (single isomer, unassigned) [Example 2, 1-(5-(4-methoxyphenyl)-pyridin-2-yl)-1-(pyridin-4-yl)ethanol] showed an IC50 in experiment [1] below 50 nM. On the same count and under the same terms, the value for `COc1ccc(-c2ccc(C(C)(O)c3ccncc3)nc2)cc1` (single isomer, unassigned) [Example 3, 1-(5-(4-methoxyphenyl)-pyridin-2-yl)-1-(pyridin-4-yl)ethanol] was 50 to 200 nM.

Take `CC(O)(c1ccncc1)c1cnc(-c2ccc(F)cc2)s1` (single isomer, unassigned) [Example 8, 1-(2-(4-fluorophenyl)thiazol-5-yl)-1-(pyridin-4-yl)ethanol]: the IC50 in experiment [1] was below 50 nM; on human CYP17, 201 to 10000 nM.

For `CC(O)(c1ccncc1)c1cnc(-c2ccc(F)cc2)s1` (single isomer, unassigned) [Example 9, 1-(2-(4-fluorophenyl)thiazol-5-yl)-1-(pyridin-4-yl)ethanol], the figures for the IC50 (in experiment [1]; against human CYP17) were below 50 nM and 50 to 200 nM, respectively. The matching figures for `CC(O)(c1ccncc1)c1nc(-c2ccc(F)cc2)no1` (single isomer, unassigned; (+)) [Example 36, (+)-1-(3-(4-fluoro-phenyl)-1,2,4-oxadiazol-5-yl)-1-(pyridin-4-yl)ethanol]: below 50 nM and below 50 nM.

Regarding `Cn1cc(-c2ccc(C(C)(O)c3ccncc3)s2)ccc1=O` (single isomer, unassigned; (-)) [Example 17, (−)-5-(5-(1-hydroxy-1-(pyridin-4-yl)ethyl)thiophen-2-yl)-1-methylpyridin-2(1H)-one], the figures for the IC50 (in experiment [1]; against human CYP17) were below 50 nM and 50 to 200 nM, respectively. On to `CCC(O)(c1ccncc1)c1cnc(-c2ccc(F)cc2)s1` (stereo not shown) [Example 4, 1-(2-(4-fluorophenyl)-thiazol-5-yl)-1-(pyridin-4-yl)propan-1-ol], for which, in experiment [1], the IC50 was below 50 nM. The same measure, in the same setting: next, `CC(O)(c1ccncc1)c1ncc(-c2ccc(F)cc2)s1` (stereo not shown) [Example 14, 1-(5-(4-Fluorophenyl)thiazol-2-yl)-1-(pyridin-4-yl)ethanol]: below 50 nM. Regarding `Cn1cc(-c2ccc(C(C)(O)c3ccncc3)s2)ccc1=O` (stereo not shown) [Example 15, 5-(5-(1-Hydroxy-1-(pyridin-4-yl)ethyl)thiophen-2-yl)-1-methyl-pyridin-2(1H)-one], the values for the IC50 (in experiment [1]; against human CYP17) were below 50 nM and 201 to 10000 nM, respectively. As for `CC(O)(c1ccncc1)c1nc(-c2ccc(F)cc2)no1` (stereo not shown) [Example 34, 1-(3-(4-Fluorophenyl)-1,2,4-oxadiazol-5-yl)-1-(pyridin-4-yl)ethanol], the IC50 in experiment [1] is below 50 nM.
